In ChEMBL document CHEMBL1153762, “Novel, broad-spectrum anticonvulsants containing a sulfamide group: advancement of N-((benzo[b]thien-3-yl)methyl)sulfamide (JNJ-26990990) into human clinical studies” (J Med Chem, 2009):
The source made the active and inactive calls.

Legend:
[1] = tested on: Mus musculus; test: Anticonvulsant activity against maximal electroshock-induced seizure in CD1 mouse at 100 mg/kg, po after 2 hrs; format: functional, organism-based; set-up: dose 100 mg/kg
[2] = tested on: Mus musculus; test: Anticonvulsant activity against maximal electroshock-induced seizure in CD1 mouse at 100 mg/kg, po after 0.5 hrs; format: functional, organism-based; set-up: dose 100 mg/kg
[3] = tested on: Mus musculus; test: Anticonvulsant activity against maximal electroshock-induced seizure in CD1 mouse at 300 mg/kg, po after 0.5 hrs; format: functional, organism-based; set-up: dose 300 mg/kg
[4] = tested on: Mus musculus; test: Anticonvulsant activity against maximal electroshock-induced seizure in po dosed CD1 mouse after 0.5 hrs; format: functional
[5] = tested on: Mus musculus; test: Anticonvulsant activity against maximal electroshock-induced seizure in CD1 mouse at 300 mg/kg, po after 4 hrs; format: functional, organism-based; set-up: dose 300 mg/kg
[6] = target: T1, Carbonic anhydrase 2 (Homo sapiens, UniProt P00918); test: Inhibition of human carbonic anhydrase 2 by fluorimetric assay
[7] = tested on: Rattus norvegicus; test: Anticonvulsant activity against maximal electroshock-induced seizure in po dosed rat after 4 hrs; format: functional
[8] = tested on: Rattus norvegicus; test: Anticonvulsant activity against maximal electroshock-induced seizure in po dosed Sprague-Dawley rat after 2 hrs; format: functional
[9] = tested on: Mus musculus; test: Anticonvulsant activity against pentylenetetrazole-induced seizure in ip dosed CF1 mouse assessed as increase in seizure threshold for clonus at ED50 administered 15 mins before pentylenetetrazole infusion; format: functional, organism-based
[10] = tested on: Mus musculus; test: Anticonvulsant activity against pentylenetetrazole-induced seizure in ip dosed CF1 mouse after 0.25 hrs; format: functional
[11] = tested on: Mus musculus; test: Anticonvulsant activity against pentylenetetrazole-induced seizure in CF1 mouse assessed as increase in seizure threshold for clonus at 107 mg/kg, ip administered 15 mins before pentylenetetrazole infusion; format: functional; settings: route intraperitoneal
[12] = tested on: Mus musculus; test: Anticonvulsant activity against pentylenetetrazole-induced seizure in CF1 mouse assessed as increase in threshold of seizure twitch at 107 mg/kg, ip administered 15 mins before pentylenetetrazole infusion; format: functional; settings: route intraperitoneal
[13] = tested on: Mus musculus; test: Anticonvulsant activity against maximal electroshock-induced seizure in po dosed CF1 mouse after 1 hr; format: functional
[14] = tested on: Mus musculus; test: Anticonvulsant activity against audiogenic seizures in ip dosed AGS mouse assessed as inhibition of hindlimb tonic extension administered 1 hr prior to 11 kHz sound induction; format: functional
[15] = tested on: Mus musculus; test: Anticonvulsant activity against pentylenetetrazole-induced seizure in ip dosed CF1 mouse assessed as increase in threshold of seizure twitch at TD50 administered 15 mins before pentylenetetrazole infusion; format: functional, organism-based
[16] = tested on: Mus musculus; test: Anticonvulsant activity against pentylenetetrazole-induced seizure in ip dosed CF1 mouse assessed as increase in seizure threshold for clonus at TD50 administered 15 mins before pentylenetetrazole infusion; format: functional, organism-based
[17] = tested on: Mus musculus; test: Anticonvulsant activity against pentylenetetrazole-induced seizure in ip CF1 mouse assessed as increase in threshold of seizure twitch at ED50 administered 15 mins before pentylenetetrazole infusion; format: functional, organism-based
[18] = tested on: Rattus norvegicus; test: Anticonvulsant activity against maximal electroshock-induced seizure in po dosed rat; format: functional
[19] = target: Sodium channel protein type 2 subunit alpha (Rattus norvegicus, UniProt P04775); test: Inhibition of rat Nav1.2 channel expressed in chinese hamster CHL1610 cells at preconditioning pulse of -67 mV after 2 to 3 mins by whole-cell patch-clamp technique; format: cell-based
[20] = tested on: Mus musculus; test: Anticonvulsant activity against bicuculline-induced seizure in ip dosed CF1 mouse after 0.25 hrs; format: functional
[21] = tested on: Mus musculus; test: Anticonvulsant activity against maximal electroshock-induced seizure in CD1 mouse at 300 mg/kg, po after 2 hrs; format: functional, organism-based; set-up: dose 300 mg/kg
[22] = tested on: Rattus norvegicus; test: Anticonvulsant activity against electric stimulation-induced pharmacoresistant limbic epilepsy in Sprague-Dawley rat kindling model assessed as reduction of seizure severity and excitability at > 300 mg/kg, ip administered 15 mins after last electric stimulation; format: functional, organism-based; set-up: dose 300 mg/kg; settings: Limbic system
[23] = tested on: Mus musculus; test: Anticonvulsant activity against picrotoxin-induced seizure in ip dosed CF1 mouse after 0.25 hrs; format: functional
[24] = tested on: Rattus norvegicus; test: Anticonvulsant activity against electric stimulation-induced pharmacoresistant limbic epilepsy in ip dosed Sprague-Dawley rat kindling model assessed as reduction of seizure severity and excitability administered 15 mins after last electric stimulation measured after 15 mins to 1 hr; format: functional; settings: Limbic system
[25] = tested on: Rattus norvegicus; test: Anticonvulsant activity against electric stimulation-induced pharmacoresistant limbic epilepsy in Sprague-Dawley rat kindling model assessed as reduction of seizure severity and excitability at > 26 mg/kg, ip administered 15 mins after last electric stimulation; format: functional, organism-based; set-up: dose 26 mg/kg; settings: Limbic system
[26] = target: T1, Carbonic anhydrase 2
Description: Inhibition of human carbonic anhydrase 2 by CO2 hydration assay

[27] = target: T1, Carbonic anhydrase 2; test: Inhibition of human carbonic anhydrase 2 at 100 uM by CO2 hydration assay
[28] = target: Sodium channel protein type 2 subunit alpha (Rattus norvegicus) (UniProt P04775); test: Inhibition of rat Nav1.2 channel expressed in chinese hamster CHL1610 cells at preconditioning pulse of -107 to -67 mV up to 300 uM after 2 to 3 mins by whole-cell patch-clamp technique; format: cell-based
[29] = tested on: Mus musculus; test: Neurotoxicity in mouse assessed as motor impairment 400 mg/kg, ip by rotarod test; format: toxicity, organism-based; set-up: dose 400 mg/kg, route intraperitoneal; settings: in vivo
[30] = tested on: Mus musculus; test: Anticonvulsant activity against maximal electroshock-induced seizure in CD1 mouse at 100 to 300 mg/kg, po after 0.5 to 8 hrs; format: functional, organism-based
[31] = Mus musculus, CF1, po, 1 h, read-out: ED50

Sodium channel protein type 2 subunit alpha, sequence (P04775 whole entry): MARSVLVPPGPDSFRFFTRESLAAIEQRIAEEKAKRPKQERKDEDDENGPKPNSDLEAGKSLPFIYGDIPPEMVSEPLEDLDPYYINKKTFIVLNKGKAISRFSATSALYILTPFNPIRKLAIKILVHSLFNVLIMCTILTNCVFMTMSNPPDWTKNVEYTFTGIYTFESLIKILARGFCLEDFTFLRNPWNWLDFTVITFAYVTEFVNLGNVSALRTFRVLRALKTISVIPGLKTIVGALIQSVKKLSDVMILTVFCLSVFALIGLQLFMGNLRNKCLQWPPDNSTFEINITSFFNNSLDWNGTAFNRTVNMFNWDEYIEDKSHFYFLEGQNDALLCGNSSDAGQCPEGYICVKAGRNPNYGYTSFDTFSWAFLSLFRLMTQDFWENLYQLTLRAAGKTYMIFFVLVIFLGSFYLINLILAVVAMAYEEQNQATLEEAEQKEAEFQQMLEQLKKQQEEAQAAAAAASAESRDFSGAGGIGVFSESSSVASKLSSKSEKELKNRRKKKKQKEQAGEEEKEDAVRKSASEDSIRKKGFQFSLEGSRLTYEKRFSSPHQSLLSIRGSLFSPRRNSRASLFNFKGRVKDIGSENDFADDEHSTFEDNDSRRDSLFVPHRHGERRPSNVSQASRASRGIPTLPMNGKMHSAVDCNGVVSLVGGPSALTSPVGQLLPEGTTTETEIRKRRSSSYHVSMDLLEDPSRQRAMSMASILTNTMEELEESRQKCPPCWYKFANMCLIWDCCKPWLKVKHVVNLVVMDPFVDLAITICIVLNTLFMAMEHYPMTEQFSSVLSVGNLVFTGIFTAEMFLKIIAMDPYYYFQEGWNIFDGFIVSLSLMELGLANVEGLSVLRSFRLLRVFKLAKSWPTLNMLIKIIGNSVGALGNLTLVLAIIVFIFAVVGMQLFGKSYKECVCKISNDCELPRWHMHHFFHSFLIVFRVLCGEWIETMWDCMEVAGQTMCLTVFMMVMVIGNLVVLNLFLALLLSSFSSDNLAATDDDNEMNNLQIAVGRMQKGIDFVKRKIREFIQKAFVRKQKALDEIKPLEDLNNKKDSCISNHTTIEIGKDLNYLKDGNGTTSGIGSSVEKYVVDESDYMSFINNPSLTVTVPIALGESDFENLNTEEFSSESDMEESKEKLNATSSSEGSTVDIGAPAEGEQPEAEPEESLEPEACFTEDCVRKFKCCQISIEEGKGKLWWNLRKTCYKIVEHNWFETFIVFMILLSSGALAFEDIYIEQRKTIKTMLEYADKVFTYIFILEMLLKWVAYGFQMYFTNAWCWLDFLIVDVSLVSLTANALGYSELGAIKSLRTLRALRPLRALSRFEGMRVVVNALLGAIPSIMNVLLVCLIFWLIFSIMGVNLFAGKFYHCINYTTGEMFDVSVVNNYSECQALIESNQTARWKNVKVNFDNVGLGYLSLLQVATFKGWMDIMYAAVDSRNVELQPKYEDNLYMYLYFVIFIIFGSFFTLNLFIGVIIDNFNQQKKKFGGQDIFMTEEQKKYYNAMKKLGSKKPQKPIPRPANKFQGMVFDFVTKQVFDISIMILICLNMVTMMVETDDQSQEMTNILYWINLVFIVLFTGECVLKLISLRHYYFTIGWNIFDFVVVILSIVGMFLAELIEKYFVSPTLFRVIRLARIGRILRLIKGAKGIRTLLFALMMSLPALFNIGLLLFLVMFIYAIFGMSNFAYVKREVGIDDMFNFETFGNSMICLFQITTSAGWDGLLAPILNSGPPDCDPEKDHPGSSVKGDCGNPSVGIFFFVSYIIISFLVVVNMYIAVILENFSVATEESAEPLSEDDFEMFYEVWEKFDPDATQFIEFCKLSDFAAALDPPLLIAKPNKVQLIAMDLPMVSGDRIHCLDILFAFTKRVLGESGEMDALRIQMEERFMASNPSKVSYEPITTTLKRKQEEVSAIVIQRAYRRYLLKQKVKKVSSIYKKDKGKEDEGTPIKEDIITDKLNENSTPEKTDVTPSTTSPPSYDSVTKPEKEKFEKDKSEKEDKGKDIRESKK
Sodium channel protein type 2 subunit alpha (Rattus norvegicus), sequence (P04775 whole entry, looked up): as the sequence (P04775 whole entry) above

Cc1oc2ccccc2c1CNS(N)(=O)=O was tested, and the Activity [1] was “inactive”.
In the case of NS(=O)(=O)NCc1ccccc1, the Activity [2] is reported as “Active”, the Activity [3] is reported as “Active” and the ED50 [4] is reported as 440 mg/kg. The Activity [5] was “Active”.
For NS(=O)(=O)NCc1csc2ccc(Cl)cc12, the Activity [2] was “inactive”, the Activity [1] was “inactive” and the IC50 [6] was 8.4 µM. For the same molecule, the Activity [3] was “inactive”.
With CC1(C)O[C@@H]2[C@@H](CO[C@@]3(COS(N)(=O)=O)OC(C)(C)O[C@@H]23)O1 [TOPIRAMATE] the ED50 [7] was 53.5 mg/kg, the ED50 [8] was 6.6 mg/kg and the Activity [9] was “inactive”. The ED50 [10] was >500 mg/kg, the Activity [11] was 0% and the Activity [12] was 0%. The ED50 [13] was 43.8 mg/kg, the ED50 [14] was 4.2 mg/kg and the Activity [15] was “inactive”. The Activity [16] was “inactive”, the Activity [17] was “inactive” and the ED50 [18] was 6.6 mg/kg. For the same molecule, the IC50 [19] was 97 µM, the ED50 [20] was >500 mg/kg and the Activity [21] was “inactive”.
With CCCC(CCC)C(=O)O [VALPROIC ACID] the Activity [22] was “Active” and the ED50 [23] was > 200 mg/kg.
CCC1(C)CC(=O)NC1=O (stereo not drawn) was tested, and the Activity [24] was “inactive”.
O=C1NC(=O)C(c2ccccc2)(c2ccccc2)N1 [PHENYTOIN] was tested, and the Activity [24] was “Active” and the IC50 [19] was 22 µM.
In the case of NC(=O)N1c2ccccc2C=Cc2ccccc21, the Activity [25] is reported as “Active”.
For CC(NS(N)(=O)=O)c1csc2ccccc12 (racemic), the IC50 [26] was 130 µM.
Nc1nnc(-c2cccc(Cl)c2Cl)c(N)n1 [LAMOTRIGINE] showed an IC50 [19] of 35 µM.
For NS(=O)(=O)NCc1c[nH]c2ccccc12, the Activity [1] was “inactive” and the IC50 [6] was 300 µM.
NS(=O)(=O)NCc1cccc2ccccc12 gave an ED50 [13, 31] of 123 mg/kg.
With NS(=O)(=O)NCc1csc2ccc(Br)cc12 the IC50 [6] was 100 µM.
Cc1ccc2scc(CNS(N)(=O)=O)c2c1 was tested, and the inhibition [27] was 44%, the ED50 [13, 31] was > 400 mg/kg and the IC50 [6] was 45 µM.
With NCC1(CC(=O)O)CCCCC1 the inhibition [28] was “inactive”.
For CC[C@@H](C(N)=O)N1CCCC1=O, the ED50 ([20]; Mus musculus, CF1, ip, 0.25 h, read-out: ED50) was > 540 mg/kg.
With NS(=O)(=O)NCc1coc2ccccc12 the Activity [29] was “Non-toxic”, the Activity [2] was “inactive” and the Activity [1] was “inactive”. The ED50 [13, 31] was > 400 mg/kg and the Activity [3] was “Active”.
In the case of CCCCNS(N)(=O)=O, the Activity [30] is reported as “inactive”.
For NS(=O)(=O)NCc1csc2ccc(F)cc12, the Activity [2] was “inactive” and the ED50 [13, 31] was 231 mg/kg.
With Cn1cc(CNS(N)(=O)=O)c2ccccc21 the Activity [2] was “inactive”, the Activity [1] was “inactive” and the ED50 [13, 31] was 345 mg/kg. For the same molecule, the Activity [3] was “Active”.
